The text below walks through data of patent publication US20150053211A1, “Cleaning and safe mouth guard solution” (priority 2013, published 2015).

The test system of experiment [1] is S. aureus. Nature of the experiment: Kill tests using S. aureus (SIK test). Format: cell-based. The conditions noted are these: LAE.HCl at 200 ppm versus a product containing 27% ethanol and 1890 ppm of essential oils. How it is done:
One of the commercial products that was analyzed not only contains a large amount of ethanol, but contains three essential biocidal oils. Specifically it contains 900 ppm of eucalyptol, 490 ppm of Thymol, and 500 ppm of D-menthol, for a total of 1890 ppm of total active constituents. In contrast our invention is N^α-lauroyl-L-arginine-ethyl ester hydrochloride, also known as LAE.HCl, which is used as a preservative in the food and cosmetic industries. • 1. N^α—lauroyl-L-arginine-ethyl ester hydrochloride, (LAE.HCl) salt is naturally derived and metabolizes readily to L-arginine, an essential amino acid, lauric acid, and very low ppm amounts of ethanol. All degradation by products are found naturally in the body and are totally harmless. • 2. LAE.HCl has undergone extensive toxicity, and safety studies, and it is approved by the FDA and EPA for food and cosmetic industries. • 3. […] The formulation of our invention includes a natural sweetener xylitol. Xylitol is known to reduce cavities as well as inhibiting the adhesion of bacteria on enamel/dentin. The selection of xylitol has the above advantages over other natural or synthetic sweeteners. (“Science Daily”, Feb. 15, 2007) • 5. Substantivity product of this invention has been proven experimentally versus the existing commercial products resulting in longer-lasting efficacy, using a zone of inhibition tests
1. […]

Experiment [2] has as its system S. aureus. Nature of the experiment: Substantivity test on 100% cotton fabric, zone of inhibition (ZOI). The class given is cell-based. The conditions noted are these: 600 ppm, dried on 100% cotton fabric, saliva added to plates. As for the experimental part:
2. Substantivity tests on 100% cotton fabric using S. aureus as the microorganism/zone of inhibition (ZOI).
Both samples (600 ppm LAE.HCl and control) were applied to 100% cotton fabric at the same volumes and allowed to dry at room temperature. Samples were then placed in an agar plates inoculated with S. aureus and incubated. To these plates was added saliva from the same person to determine if either sample would produce a zone inhibition. A negative control was also run at the same time. Only the product of this invention gave a positive ZOI.

Consider `CCCCCCCCCCCC(=O)N[C@@H](CCCNC(=N)N)C(=O)OCC.Cl` [LAE.HCl, N^α-lauroyl-L-arginine-ethyl ester hydrochloride], for which the kill entry in the experiment on S. aureus [1] was “comparable kill”. Further, the “zone of inhibition (ZOI)” value with S. aureus [2] is “positive ZOI”.
